Measurements taken from patent US10000500B2 (PROMEGA CORPORATION, priority 2016, dated 2018).

Experiments:
Format in all cases: biochemical
[1] = target: T1, NANOLUC® Luciferase (Oplophorus gracilirostris, UniProt Q9GV45, A31E/A60N/A81I/F95D/I117V/K70R/L54V/L99Q/M102K/N193R/P142E/Q151K/Q38R/Q45L/V71I/Y165I); assay: Spectral measurements in various buffers with NANOLUC luciferase (Example 10); details: for shift of the NanoLuc luciferase spectral properties: FIGS. 3A-3C and 4A-4D; for NanoGlo (spectral peak, Table 4) / OptiMEM (spectral peak, Table 4) / High / Low / Peak / Width: NanoLuc; for NanoGlo (spectral peak, Table 4): NanoGlo buffer; for High / Low / Peak / Width: emission spectrum
Protocol: (§1) Each compound to be screened was diluted to a concentration of 100 uM (50 uM final concentration) in Renilla Glo Luciferase Assay buffer (Promega Corporation), NANO-GLO Luciferase Assay Buffer (Promega Corporation), or 20 uM (10 uM final) in OptiMEM+0.1% FBS. NANOLUC® luciferase and Renilla luciferase were serially diluted to 4, 40, and 400 ng/ml in OptiMEM+0.1% FBS. 50 ul of each compound dilution was mixed with 50 ul enzyme dilution and incubated for 1 minute at room temperature. Autoluminescence spectra of AS-353 was measured by adding 20 uM of substrate to OptiMEM+20% FBS and then 50 ul of this dilution was combined with 50 ul of OptiMEM+0.1% FBS. Spectral measurements were measured using a Tecan M-1000 luminometer. ([…]).

[2] = target: T1, NANOLUC® Luciferase; assay: Luminescence assay with purified NANOLUC luciferase (Example 7); details: bioluminescence with NANOLUC luciferase
Protocol: Each compound to be screened was dissolved in DMSO (5 mM) and then further diluted to 100 uM in NANO-GLO® Luciferase Assay Buffer. Each diluted substrate was then combined in equal volumes with purified NANOLUC® Luciferase diluted into CO2 independent media+10% FBS. Initial light output for each substrate was measured in a GLOMAXI-Multi+luminometer three minutes after substrate addition and then at five minute intervals as a means to determine signal half-life.
The synthesized coelenterazine analogues (compounds of formula (I) and (II)) were evaluated for their suitability as luciferase substrates. NANOLUC® luciferase was employed for the screening because it is a small (19 kDa), stable, and particularly bright enzyme.

[3] = target: T2, Renilla luciferase (Renilla reniformis, UniProt P27652); assay: Km and Vmax substrate titration with Renilla luciferase (Example 8)
T2 sequence (P27652 1-311): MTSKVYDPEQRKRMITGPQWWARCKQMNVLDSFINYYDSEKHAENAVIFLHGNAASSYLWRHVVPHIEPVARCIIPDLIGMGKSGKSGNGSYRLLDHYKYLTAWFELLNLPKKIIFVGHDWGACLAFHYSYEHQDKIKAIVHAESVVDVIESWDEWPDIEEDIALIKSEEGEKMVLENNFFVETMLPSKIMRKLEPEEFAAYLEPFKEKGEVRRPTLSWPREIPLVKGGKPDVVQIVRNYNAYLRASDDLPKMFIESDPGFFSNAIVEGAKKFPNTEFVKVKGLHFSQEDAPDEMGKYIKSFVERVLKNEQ
Protocol: (§2) Each compound to be screened was diluted to a concentration of 100 uM in Renilla Glo Luciferase Assay buffer (Promega Corporation) and then further diluted to 2×serial dilution in Renilla Glo Luciferase Assay Buffer. NANOLUC® luciferase and Renilla luciferase were diluted to a concentration of 4 ng/ml in OptiMEM+0.1% FBS. 50 ul of each compound dilution was then mixed with 50 ul of each enzyme dilution and incubated for 1 minute at room temperature. Light output for each compound was measured on a GLOMAX®-Multi+ luminometer. Km and Vmax were calculated for each enzyme/substrate combination using a GraphPad Prism Michaelis-Menten non-linear fit (FIGS. 1A-ID).

[4] = target: T1, NANOLUC® Luciferase; assay: Km and Vmax substrate titration with NanoLuc luciferase (Example 8); details: for light produced by NanoLuc luciferase compared to Renilla: FIGS. 1A-1D
Protocol: as §2

[5] = target: T2, Renilla luciferase; assay: Spectral measurements in various buffers with Renilla luciferase (Example 10); design: Low / High / Width: unit not given here; details: for RenillaGlo (spectral peak, Table 4): RenillaGlo buffer; for High / Low / Peak / Width: emission spectrum
Protocol: as §1

[6] = Renilla luciferase 4 ng/ml, Renilla Glo buffer, Michaelis-Menten fit
[7] = NanoLuc 4 ng/ml, Renilla Glo buffer, Michaelis-Menten fit

T1 sequence (Q9GV45 28-196 with tags or gaps with the stated changes limits assumed): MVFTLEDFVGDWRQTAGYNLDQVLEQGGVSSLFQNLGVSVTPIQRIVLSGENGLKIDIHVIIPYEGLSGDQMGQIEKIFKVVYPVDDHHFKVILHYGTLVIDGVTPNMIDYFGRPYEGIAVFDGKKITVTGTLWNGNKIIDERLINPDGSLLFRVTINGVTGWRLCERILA

Row | Compound | NanoGlo (spectral peak, Table 4) [1] | OptiMEM (spectral peak, Table 4) [1] | High ([1]; NanoGlo Buffer) | Low ([1]; NanoGlo Buffer) | Peak ([1]; NanoGlo Buffer) | Width ([1]; NanoGlo Buffer) | High ([1]; OptiMEM + 0.1% FBS) | Low ([1]; OptiMEM + 0.1% FBS) | Peak ([1]; OptiMEM + 0.1% FBS) | Width ([1]; OptiMEM + 0.1% FBS) | λmax, nm [2] | also measured
1 | O=c1c(Cc2ccco2)nc2c(-c3ccccc3)[nH]c(-c3ccccc3)cn1-2 [AS-174, 2-(furan-2-ylmethyl)-6,8-diphenylimidazo[1,2-a]pyrazin-3(7H)-one] | 493 | 490 | 541 | 460 | 493 | 81 | 535 | 460 | 490 | 75 | 496 nm | shift of the NanoLuc luciferase spectral properties [1]: shifted the NanoLuc® luciferase spectral properties to red
2 | N#Cc1ccc(-c2[nH]c(-c3ccccc3)cn3c(=O)c(Cc4ccco4)nc2-3)s1 [AS-262, 5-(2-(furan-2-ylmethyl)-3-oxo-6-phenyl-3,7-dihydroimidazo[1,2-a]pyrazin-8-yl)thiophene-2-carbonitrile] | 577 | 574 | 634 | 535 | 577 | 99 | 625 | 532 | 574 | 93 | 574 nm | shift of the NanoLuc luciferase spectral properties [1]: shifted the NanoLuc® luciferase spectral properties to red
3 | O=c1c(Cc2ccco2)nc2c(-c3ccnc4ccccc34)[nH]c(-c3ccccc3)cn1-2 [AS-310, 2-(furan-2-ylmethyl)-6-phenyl-8-(quinolin-4-yl)imidazo[1,2-a]pyrazin-3(7H)-one] | 574 | 571 | 631 | 526 | 574 | 105 | 631 | 520 | 571 | 111 | 571 nm | shift of the NanoLuc luciferase spectral properties [1]: shifted the NanoLuc® luciferase spectral properties to red
4 | Nc1ccc(-c2cn3c(=O)c(Cc4ccco4)nc-3c(-c3ccnc4ccccc34)[nH]2)cc1 [AS-330, 6-(4-aminopheny1)-2-(furan-2-ylmethyl)-8-(quinolin-4-yl)imidazo[1,2-a]pyrazin-3(7H)-one] | – | – | – | – | – | – | – | – | – | – | 583 nm | –
5 | N#Cc1ccc(-c2[nH]c(-c3ccc(N)cc3)cn3c(=O)c(Cc4ccco4)nc2-3)s1 [AS-332, 5-(6-(4-aminophenyl)-2-(furan-2-ylmethyl)-3-oxo-3,7-dihydroimidazo[1,2-a]pyrazin-8-yl)thiophene-2-carbonitrile] | – | – | – | – | – | – | – | – | – | – | 598 nm | –
6 | N#Cc1ccc(-c2[nH]c3c(n4c(=O)c(Cc5ccco5)nc2-4)CCc2ccccc2-3)s1 [AS-340, 5-(2-(furan-2-ylmethyl)-3-oxo-3,5,6,11-tetrahydrobenzo[f]imidazo[1,2-a]quinoxalin-12-yl)thiophene-2-carbonitrile] | – | – | – | – | – | – | – | – | – | – | 574 nm | –
7 | O=c1c(Cc2ccco2)nc2c(-c3ccnc4ccccc34)[nH]c3c(n1-2)CCc1ccccc1-3 [AS-341, 2-(furan-2-ylmethyl)-12-(quinolin-4-yl)-5,11-dihydrobenzo[f]imidazo[1,2-a]quinoxalin-3(6H)-one] | – | – | – | – | – | – | – | – | – | – | 583 nm | –
8 | O=c1c(Cc2ccco2)nc2c(-c3ccnc(Cl)c3)[nH]c3c(n1-2)CCc1ccccc1-3 [AS-342, 12-(2-chloropyridin-4-yl)-2-(furan-2-ylmethyl)-5,11-dihydrobenzo[f]imidazo[1,2-a]quinoxalin-3(6H)-one] | – | – | – | – | – | – | – | – | – | – | 538 nm | –
9 | Oc1ccc(-c2cn3c(O)c(Cc4ccccc4)nc3c(Cc3ccccc3)n2)cc1 [Coelenterazine-H] | 466 | 460 | 508 | 433 | 466 | 75 | 502 | 433 | 460 | 69 | – | more light with Renilla luciferase compared to Furimazine ([3]; FIGS. 1A-1D): ~7 ×; Km [3, 6]: 3.26 µM; Vmax [3, 6]: 64,494; light produced by NanoLuc luciferase compared to Renilla [4]: significantly more light than Renilla; Vmax [4, 7]: 19,790,000; Km ([4]; NanoLuc 4 ng/ml, Renilla Glo buffer, Michaelis-Menten fit, read-out: Km): 36.4 µM; OptiMEM (spectral peak, Table 4) ([5]; Renilla): 487; RenillaGlo (spectral peak, Table 4) ([5]; Renilla): 490; High ([5]; Renilla/RenillaGlo): 541; Low ([5]; Renilla/RenillaGlo): 454; Peak ([5]; Renilla/RenillaGlo): 490; Width ([5]; Renilla/RenillaGlo): 87; High ([5]; Renilla, OptiMEM + 0.1% FBS): 535; Low ([5]; Renilla, OptiMEM + 0.1% FBS): 451; Peak ([5]; Renilla, OptiMEM + 0.1% FBS): 487; Width ([5]; Renilla, OptiMEM + 0.1% FBS): 84
10 | O=c1c(Cc2ccco2)nc2c(Cc3ccccc3)[nH]c(-c3ccccc3)cn1-2 [Furimazine, 8-benzyl-2-(furan-2-ylmethyl)-6-phenylimidazo[1,2-a]pyrazin-3(7H)-one] | 463 | 463 | 520 | 433 | 463 | 87 | 499 | 430 | 463 | 69 | 460 nm | Vmax [3, 6]: 8,910; light produced by NanoLuc luciferase compared to Renilla [4]: significantly more light than Renilla; Vmax [4, 7]: 33,470,000; OptiMEM (spectral peak, Table 4) ([5]; Renilla): 430; RenillaGlo (spectral peak, Table 4) ([5]; Renilla): 436; High ([5]; Renilla/RenillaGlo): 490; Low ([5]; Renilla/RenillaGlo): 403; Peak ([5]; Renilla/RenillaGlo): 436; Width ([5]; Renilla/RenillaGlo): 87; High ([5]; Renilla, OptiMEM + 0.1% FBS): 472; Low ([5]; Renilla, OptiMEM + 0.1% FBS): 403; Peak ([5]; Renilla, OptiMEM + 0.1% FBS): 430; Width ([5]; Renilla, OptiMEM + 0.1% FBS): 69
11 | Nc1cccc(-c2cn3c(=O)c(Cc4ccco4)nc-3c(Cc3ccccc3)[nH]2)c1 [JRW-0438, 6-(3-aminophenyl)-8-benzyl-2-(furan-2-ylmethyl)imidazo[1,2-a]pyrazin-3(7H)-one] | – | – | – | – | – | – | – | – | – | – | 487 nm | –
12 | Nc1ccc(-c2cn3c(=O)c(Cc4ccco4)nc-3c(Cc3ccccc3)[nH]2)cc1 [JRW-0445, 6-(4-aminophenyl)-8-benzyl-2-(furan-2-ylmethyl)imidazo[1,2-a]pyrazin-3(7H)-one] | – | – | – | – | – | – | – | – | – | – | 502 nm | –
13 | Nc1ccccc1-c1cn2c(=O)c(Cc3ccco3)nc-2c(Cc2ccccc2)[nH]1 [JRW-0446, 6-(2-aminophenyl)-8-benzyl-2-(furan-2-ylmethyl)imidazo[1,2-a]pyrazin-3(7H)-one] | – | – | – | – | – | – | – | – | – | – | 487 nm | –
